Patent publication US9056863B2, “Substituted 2,3,5,9,9B-pentaazacyclopenta[a]naphthalenes and uses thereof” (H. Lundbeck A/S, priority 2011, dated 2015)
Values belong to the compound of their own block, whether it stands above or below them.

Legend:
human PDE10A = human PDE10A (Homo sapiens (Human), UniProt Q9Y233); assay: PDE10A inhibition assay; format: biochemical; conditions: for PDE10 % inhibition: @ 10,000 nM
Description: Active PDE10A enzyme is prepared in a number of ways for use in PDE assays (Loughney, K. et al. Gene 1999, 234, 109-117; Fujishige, K. et al. Eur J. Biochem. 1999, 266, 1118-1127 and Soderling, S. et al. Proc. Natl. Acad. Sci. 1999, 96, 7071-7076). PDE10A can be expressed as full-length proteins or as truncated proteins, as long as they express the catalytic domain. PDE10A can be prepared in different cell types, for example insect cells or E. coli. An example of a method to obtain catalytically active PDE10A is as follows: The catalytic domain of human PDE10A (amino acids 440-779 from the sequence with accession number NP 006652) is amplified from total human brain total RNA by standard RT-PCR and is cloned into the BamH1 and XhoI sites of the pET28a vector (Novagen). Expression in coli is performed according to standard protocols. Briefly, the expression plasmids are transformed into the BL21(DE3) E. coli strain, and 50 mL cultures inoculated with the cells allowed to grow to an OD600 of 0.4-0.6 before protein expression is induced with 0.5 mM IPTG. Following induction, the cells are incubated overnight at room temperature, after which the cells are collected by centrifugation. Cells expressing PDE10A are resuspended in 12 mL (50 mM TRIS-HCl-pH8.0, 1 mM MgCl2 and protease inhibitors). The cells are lysed by sonication, and after all cells are lysed, TritonX100 is added according to Novagen protocols.
A typical PDE10A assay was performed as follows: the assay was performed in 60 μL samples containing a fixed amount of the […] enzyme (sufficient to convert 20-25% of the cyclic nucleotide substrate), a buffer (50 mM HEPES pH 7.6; 10 mM MgCl2; 0.02% Tween20), 10 nM tritium labelled cAMP and varying amounts of inhibitors. […] The beads were allowed to settle for 1 h in the dark before the plates were counted in a Wallac 1450 Microbeta counter. The measured signals were converted to activity relative to an uninhibited control (100%) and IC50 values were calculated using XlFit (model 205, IDBS).

[1] = rats; cited from earlier work
[2] = rats, subchronic phencyclidine; cited from earlier work
[3] = cited from earlier work
[4] = cited from earlier work; remark: listed apart in the source
human PDE2A enzyme = human PDE2A enzyme (Homo sapiens (Human), UniProt O00408); assay: PDE2A inhibition assay; format: biochemical; conditions: 15 nM tritium labelled cAMP, SPA
Description: Likewise, active human PDE2A enzyme (ATCC68585) is prepared in a number of ways for use in PDE assays and procedures are well known to those skilled in the art.
A typical PDE2A assay was performed as follows: the assay was performed in 60 μL samples containing a fixed amount of the […] enzyme (sufficient to convert 20-25% of the cyclic nucleotide substrate), a buffer (50 mM HEPES pH 7.6; 10 mM MgCl2; 0.02% Tween20), 0.1 mg/ml BSA, 15 nM tritium labelled cAMP and varying amounts of inhibitors. Reactions were initiated by addition of the cyclic nucleotide substrate, and reactions were allowed to proceed for 1 h at room temperature before being terminated through mixing with 20 μL (0.2 mg) yttrium silicate SPA beads (Amersham). The beads were allowed to settle for 1 h in the dark before the plates were counted in a Wallac 1450 Microbeta counter. The measured signals were converted to activity relative to an uninhibited control (100%) and IC50 values were calculated using XlFit (model 205, IDBS).

[5] = mice, BSO glutathione depletion; cited from earlier work
[6] = in vivo; cited from earlier work
rat hippocampal slices = conditions: cited from earlier work
[7] = system: primary neuronal cultures and hippocampal slices; conditions: cited from earlier work
[8] = tryptophan depletion; cited from earlier work
[9] = aged rats; cited from earlier work

Chain of human PDE10A (Q9Y233 716-1055): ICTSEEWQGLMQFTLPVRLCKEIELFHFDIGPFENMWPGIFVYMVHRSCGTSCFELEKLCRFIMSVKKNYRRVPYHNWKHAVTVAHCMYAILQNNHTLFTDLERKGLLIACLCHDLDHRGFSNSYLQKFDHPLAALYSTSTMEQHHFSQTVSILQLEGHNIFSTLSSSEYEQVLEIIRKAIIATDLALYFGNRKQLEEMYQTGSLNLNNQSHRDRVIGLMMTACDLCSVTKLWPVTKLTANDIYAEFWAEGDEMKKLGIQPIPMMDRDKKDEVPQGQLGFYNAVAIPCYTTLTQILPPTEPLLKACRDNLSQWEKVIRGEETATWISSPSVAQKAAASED
Chain of human PDE2A enzyme (O00408 whole entry): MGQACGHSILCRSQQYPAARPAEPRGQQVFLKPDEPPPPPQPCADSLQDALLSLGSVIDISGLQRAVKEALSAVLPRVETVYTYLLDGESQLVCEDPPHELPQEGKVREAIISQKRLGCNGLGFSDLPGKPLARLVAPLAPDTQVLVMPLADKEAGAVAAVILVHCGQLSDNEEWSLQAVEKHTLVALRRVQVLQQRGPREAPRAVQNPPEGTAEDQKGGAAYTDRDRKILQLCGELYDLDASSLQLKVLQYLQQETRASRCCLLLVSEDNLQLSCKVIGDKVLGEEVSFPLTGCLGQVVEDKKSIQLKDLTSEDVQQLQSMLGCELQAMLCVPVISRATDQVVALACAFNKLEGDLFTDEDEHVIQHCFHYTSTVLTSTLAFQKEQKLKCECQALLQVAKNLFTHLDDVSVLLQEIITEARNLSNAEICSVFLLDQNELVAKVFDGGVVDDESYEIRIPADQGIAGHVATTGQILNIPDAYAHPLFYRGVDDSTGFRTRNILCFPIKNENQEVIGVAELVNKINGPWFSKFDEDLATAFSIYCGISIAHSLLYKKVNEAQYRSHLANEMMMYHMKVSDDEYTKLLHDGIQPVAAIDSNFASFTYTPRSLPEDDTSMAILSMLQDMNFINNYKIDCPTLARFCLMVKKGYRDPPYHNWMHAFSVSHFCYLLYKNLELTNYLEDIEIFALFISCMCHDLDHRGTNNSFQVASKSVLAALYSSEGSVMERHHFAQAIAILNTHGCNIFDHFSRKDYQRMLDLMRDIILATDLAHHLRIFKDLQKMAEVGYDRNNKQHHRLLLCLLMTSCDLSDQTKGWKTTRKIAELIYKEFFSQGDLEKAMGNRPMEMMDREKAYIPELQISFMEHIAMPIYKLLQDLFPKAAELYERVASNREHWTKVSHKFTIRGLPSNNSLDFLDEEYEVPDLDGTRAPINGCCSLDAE

IC50 (human PDE10A; 10 nM tritium labelled cAMP, SPA, read-out: PDE10 IC50): 1760 nM
Compound: Cc1nc2ccncc2n2c(-c3ccccc3Cl)nnc12 [Example Ic1, 1-(2-Chloro-phenyl)-4-methyl-2,3,5,8,9b-pentaaza-cyclopenta[a]naphthalene]

Compound: COc1ccc(Cc2nccc3cc(OC)c(OC)cc23)cc1OC [papaverine]
apomorphine-induced stereotypies [1]: reduces apomorphine-induced stereotypies
dopamine concentration in rat brain [1]: reducing dopamine concentration
haloperidol-induced catalepsy [1]: increases haloperidol-induced catalepsy
attentional set-shifting deficits [2]: reverses attentional set-shifting deficits

Compound: NCCN(CCN)/[N+]([O-])=N/O [detanonoate]
anxiogenic effects of restraint stress on behaviour [3]: antagonized the anxiogenic effects

Compound: O=C(CCCN1CCC(O)(c2ccc(Cl)cc2)CC1)c1ccc(F)cc1 [haloperidol]
cGMP levels ([4]; patients): increased
cAMP levels ([4]; rats): increased

Compound: COc1cc2c(cc1-c1ccccc1)C(c1cccc(C(N)=O)c1)=NCC(=O)N2C [ND7001]
anxiogenic effects of restraint stress on behaviour [3]: antagonized the anxiogenic effects

IC50 (human PDE2A enzyme): 504 nM
PDE10 % inhibition (human PDE10A): 48% inhibition
Compound: Cc1cccc(Cl)c1-c1nnc2c(C)nc3ncccc3n12 [Example Ia2, 1-(2-Chloro-6-methyl-phenyl)-4-methyl-2,3,5,6,9b-pentaaza-cyclopenta[a]naphthalene]

IC50 (human PDE2A enzyme): 471 nM
PDE10 % inhibition (human PDE10A): 68% inhibition
Compound: Cc1nc2cnccc2n2c(-c3ccccc3Cl)nnc12 [Example Ib1, 1-(2-Chloro-phenyl)-4-methyl-2,3,5,7,9b-pentaaza-cyclopenta[a]naphthalene]

Compound: COc1ccc(Cc2nn3c([C@@H](CCCc4ccccc4)[C@@H](C)O)nc(C)c3c(=O)[nH]2)cc1OC [Bay 60-7550]
anxiety-like behaviours [5]: reversed
activity in novel object and social recognition tasks [6]: active
long term potentiation (LTP) induction (rat hippocampal slices): increases long term potentiation (LTP) induction
anxiogenic effects of restraint stress on behaviour [3]: antagonized the anxiogenic effects
cGMP [7]: preferentially increases cGMP
deficit in object recognition [8]: reverse the deficit in object recognition
object recognition [9]: beneficial effect
